From ChEMBL document CHEMBL1126775, “A pharmacological, crystallographic, and quantum chemical study of new inotropic agents” (J Med Chem, 1993)
Values joined by “and” are separate entries in the source; they are usually repeats but may differ in a detail not shown here. Equal entries are not always repeated.

Key:
[1] = species: Cavia porcellus; assay: Effect on contractile force of spontaneously beating atria from reserpine treated guinea pigs at the concentration of 10 e-3 M (negative ionotropic effect); format: functional
[2] = species: Cavia porcellus; assay: Effect on contractile force of spontaneously beating atria from reserpine treated guinea pigs at the concentration of 10 e-4 M; format: functional
[3] = species: Cavia porcellus; assay: Effect on contractile force of spontaneously beating atria from reserpine treated guinea pigs at the concentration of 10 e-5 M; format: functional
[4] = species: Cavia porcellus; assay: Effect on contractile force of spontaneously beating atria from reserpine treated guinea pigs at the concentration of 2 x 10 e-3 M (negative ionotropic effect); format: functional
[5] = species: Cavia porcellus; assay: Effect on contractile force of spontaneously beating atria from reserpine treated guinea pigs at the concentration of 5x 10 e-4 M (negative ionotropic effect); format: functional
[6] = species: Cavia porcellus; assay: Effect on contractile force of spontaneously beating atria from reserpine treated guinea pigs at the concentration of 5x 10 e-5 M; format: functional
[7] = species: Cavia porcellus; assay: Effect on frequency rate of spontaneously beating atria from reserpine treated guinea pigs at the concentration of 10 e-3 M; format: functional
[8] = species: Cavia porcellus; assay: Effect on frequency rate of spontaneously beating atria from reserpine treated guinea pigs at the concentration of 10 e-4 M (negative chronotropic ionotropic effect); format: functional
[9] = species: Cavia porcellus; assay: Effect on frequency rate of spontaneously beating atria from reserpine treated guinea pigs at the concentration of 2 x 10 e-3 M; format: functional
[10] = species: Cavia porcellus; assay: Effect on frequency rate of spontaneously beating atria from reserpine treated guinea pigs at the concentration of 5 x 10 e-4 M; format: functional
[11] = species: Cavia porcellus; assay: Effect on frequency rate of spontaneously beating atria from reserpine treated guinea pigs at the concentration of 5 x 10 e-5 M (negative chronotropic ionotropic effect)
[12] = species: Cavia porcellus; assay: Effect on contractile force of spontaneously beating atria from reserpine treated guinea pigs at the concentration of 10 e-3 M; format: functional
[13] = species: Cavia porcellus; assay: Effect on contractile force of spontaneously beating atria from reserpine treated guinea pigs at the concentration of 2 x 10 e-3 M; format: functional
[14] = species: Cavia porcellus; assay: Effect on contractile force of spontaneously beating atria from reserpine treated guinea pigs at the concentration of 5x 10 e-4 M; format: functional
[15] = species: Cavia porcellus; assay: Effect on frequency rate of spontaneously beating atria from reserpine treated guinea pigs at the concentration of 10 e-4 M; format: functional
[16] = species: Cavia porcellus; assay: Effect on frequency rate of spontaneously beating atria from reserpine treated guinea pigs at the concentration of 10 e-5 M; format: functional
[17] = species: Cavia porcellus; assay: Effect on contractile force of spontaneously beating atria from reserpine treated guinea pigs at the concentration of 10 e-4 M (negative ionotropic effect); format: functional
[18] = species: Cavia porcellus; assay: Effect on frequency rate of spontaneously beating atria from reserpine treated guinea pigs at the concentration of 10 e-3 M (negative chronotropic ionotropic effect); format: functional
[19] = species: Cavia porcellus; assay: Effect on frequency rate of spontaneously beating atria from reserpine treated guinea pigs at the concentration of 2 x 10 e-3 M (negative chronotropic ionotropic effect); format: functional
[20] = species: Cavia porcellus; assay: Effect on frequency rate of spontaneously beating atria from reserpine treated guinea pigs at the concentration of 5 x 10 e-4 M (negative chronotropic ionotropic effect); format: functional

Row | Compound | Increase [1] [%] | Increase [2] [%] | Increase [3] [%] | Increase [4] [%] | Increase [5] [%] | Increase [6] [%] | Increase [7] [%] | Increase [8] [%] | Increase [9] [%] | Increase [10] [%] | Increase [11] | Increase [12] [%] | Increase [13] [%] | Increase [14] [%] | Increase [15] [%] | Increase [16] | Increase [17] [%] | Increase [18] [%] | Increase [19] [%] | Increase [20] [%]
1 | CC(C)C(=O)c1ccc(O)nc1C(C)C | -26.37 | 16.38 | 5.34 | -44.47 | -9.42 | 11.69 | 26.33 | -0.99 | 32.13 | 20.8 | -3.28% and -5.14% |  |  |  |  |  |  |  |  | 
2 | O=C1CCCc2nc(O)ccc21 |  | 14.7 | 0.48 |  |  | 7.65 | 15.52 |  | 18.17 | 12.44 |  | 25.64 | 26.56 | 23.87 | 6.26 | 0% |  |  |  | 
3 | CC(=O)c1ccc(O)nc1C |  | 10.35 | 5.35 |  |  | 5.84 | 10.85 |  | 14.19 | 10.85 |  | 10.27 | 10.35 | 9.72 | 4.7 | 1.79% and 4.14% |  |  |  | 
4 | CC(C)C(=O)c1cc(C#N)c(O)nc1C(C)C | -67.64 | 1.42 | 8.22 | -86.43 | -34.43 | 11.62 | 22.83 |  | 16.27 | 18.85 |  |  |  |  | 9.64 | 2.33% and 5.14% |  |  |  | 
5 | CC1CC(=O)c2cc(C(=O)O)c(O)nc2C1 (configuration not stated) |  | 4.57 | 2.55 |  |  | 3.78 | 7.38 |  | 10.36 | 6.53 |  | 8.37 | 11.38 | 8.53 | 3.58 | 1.5% and 2.78% |  |  |  | 
6 | CC(C)C(=O)c1cc(C(=O)O)c(O)nc1C(C)C |  |  | 3.46 | -99.99 | -49.63 | 3.21 | 16.19 |  | 11.35 | 23.17 |  | -82.26 |  |  | 6.01 | 0.58% and 0.75% | -8.88 |  |  | 
7 | N#Cc1cc2c(nc1O)CCCC2=O |  | 16.12 | 2.59 |  |  | 7.87 |  | -6.06 |  |  | -3.08% | 23.3 | 13.01 | 25.67 |  | 3.02% |  | -0.57 | -0.79 | -3.85
8 | CC1(C)CC(=O)c2cc(C(=O)O)c(O)nc2C1 | -3.94 | 1.66 | 0.51 | -4.46 |  | 2.7 |  |  |  |  |  |  |  | -0.69 | 0.88 | 0.41% and 1.8% |  | -2.94 | -4.76 | -0.69
9 | O=C1CC(c2ccccc2)Cc2nc(O)ccc21 (configuration not stated) |  | 1.2 | 2.28 |  |  | 4.52 | 12.61 |  | 14.52 | 8.85 | -3.42% | 1.73 | 3.44 | 1.46 | 5.61 | 2.19% |  |  |  | 
10 | CC(=O)c1cc(C(=O)O)c(O)nc1C |  | 5.46 | 2.63 |  |  | 5.72 |  | -5.67 |  |  | -4.2% and -4.31% | 11.48 | 10.83 | 9.55 |  |  |  | -1.43 | -1.39 | -2.31
